The values below come from US20230109708A1, “Cellular Uptake” (Axcess (UK) Ltd, priority 2020, published 2023).

The test system of assay [1] is Caco-2 cells. In words: Uptake of FITC-insulin into Caco-2 cells, confocal microscope (Example 1). The class given is cell-based. Conditions: for uptake of FITC-insulin into cells (photomicrographs): FITC-insulin 100 ug/ml alone or with sodium chenodeoxycholate 1 or 2 mg/ml, 37° C. half an hour. As to the method:
The supernatant was then removed, replaced with 0.5 ml of 4% paraformaldehyde solution, and incubated at room temperature for 15 minutes. The paraformaldehyde was then removed, the wells were washed three times with phosphate-buffered saline, and the coverslips then treated with mounting medium and viewed under a confocal microscope. Images are set out in FIG. 1.

Assay [2] has as its system Caco-2 cells. In words: FITC-albumin uptake after chlorpromazine preincubation, fluorescence microscope score (Example 4). The class given is cell-based. Details: fluorescence score, uptake of FITC-albumin: key to the marks not given beside the values. Conditions: for effect of preincubation with inhibitor on chenodeoxycholate-stimulated uptake of FITC-albumin: preincubation ten minutes, amiloride and nystatin in similar experiments.

Assay [3] concerns Caco-2 cells. In words: FITC-albumin uptake with chenodeoxycholate and EDTA, DTPA or EGTA, fluorescence microscope score (Example 9). In kind it is cell-based. Conditions: 30 minutes; for fluorescence score, uptake of FITC-albumin: EDTA, DTPA or EGTA 1 mg/ml where present; for enhancement of uptake over and above that seen with chenodeoxycholate alone: agent added at 1 mg/ml to chenodeoxycholate.

The subject of assay [4] is Caco-2 cells. Put plainly: FITC-hGH uptake with chenodeoxycholate, cells in suspension, plate reader (Example 13). In kind it is cell-based. The note with it: FITC-hGH 100 ug/ml; chenodeoxycholate at different concentrations; 15 minutes. The protocol:
1 ml of FITC-hGH alone (concentration 100 ug/ml) or FITC-hGH containing chenodeoxycholate at different concentrations were then added.

Assay [5] has as its system Caco-2 cells.
In assay [6] the test system is Caco-2 cells. Also on record: key to the marks not given beside the values. The note with it: twenty minutes, PG 2:1 wt:wt where present.
Assay [7] has as its system Caco-2 cells. The note with it: for enhancement of uptake of the protein (FITC-albumin): chenodeoxycholate 0.5 mg/ml, EDTA or orthophenanthroline 5 mg/ml, alone or in combination.
In assay [8] the test system is Caco-2 cells. Conditions: chenodeoxycholate and EDTA alone or in combination at 1 mg/ml; 15 minutes; cells in suspension.
The subject of another assay is IEC6 cell line. Conditions: chenodeoxycholate 0.5 mg/ml; different concentrations of EDTA; 15 minutes.
Assay [9] deals with Caco-2 cells. In words: Uptake of FITC-albumin or FITC-Casein with chenodeoxycholate, fluorescence microscope score (Example 6). In kind it is cell-based. Conditions: FITC-labelled protein 100 ug/ml with chenodeoxycholate. The text has this:
The experiment was repeated on two separate occasions on different days.

Where [10] appears, read: column Concentration of Chenodeoxycholate 0.5 mg/ml, sample alone, no preincubation.
[11] abbreviates: column Concentration of Chenodeoxycholate 1.0 mg/ml, sample alone, no preincubation.
[12] abbreviates: column Concentration of Chenodeoxycholate 1.5 mg/ml, sample alone, no preincubation.

Where two headings read alike, the source gives them in different places.

For `C[C@H](CCC(=O)O)[C@H]1CC[C@H]2[C@@H]3[C@H](O)C[C@@H]4C[C@H](O)CC[C@]4(C)[C@H]3CC[C@]12C` [Cheno alone, sodium chenodeoxycholate], in the assay on Caco-2 cells [1], the “uptake of FITC-insulin into cells (photomicrographs)” value is listed as “uptake is enhanced”. In addition, in the assay with Caco-2 cells [1] (FITC-insulin 100 ug/ml, higher concentration of the bile salt (2 mg/ml)), the “fluorescent material in vacuoles within the cells” value is listed as “clearly being seen in vacuoles within the cells”. Besides, the “fluorescence score, uptake of FITC-albumin” value (“fluorescence score, uptake” below) in the assay with Caco-2 cells [2] (Cheno 1.0 mg/ml, Chlorpromazine 0 mg/ml) was “+++”; with Caco-2 cells [2] (Cheno 1.5 mg/ml, Chlorpromazine 0 mg/ml), “++”; with Caco-2 cells [3] (Chenodeoxycholate 0.5 mg/ml), “+”; with Caco-2 cells [3] (Chenodeoxycholate 1 mg/ml), “++”; in the assay on Caco-2 cells [5] (setting [10]), “+”; in the assay with Caco-2 cells [5] (setting [11]) it was “+++”. Further, the “fluorescence score, uptake” value is on record as “+++” in the assay with Caco-2 cells [5] (setting [12]); “++” in the assay with Caco-2 cells [6] (Concentration of Bile Salt 1.0 mg/ml); “+++” in the assay with Caco-2 cells [6] (Concentration of Bile Salt 1.5 mg/ml); “+” with Caco-2 cells [7] (Chenodeoxycholate 0.5 mg/ml, EDTA or orthophenanthroline 5 mg/ml where present, twenty-five minutes). In addition, the “uptake of hGH (FITC-hGH) into cells” value in the assay on Caco-2 cells [4] is given as “enhances the uptake of hGH into cells in a dose-dependent manner”. The “enhancement of uptake of the protein (FITC-albumin)” value in the assay with Caco-2 cells [7] is reported as “neither chenodeoxycholate nor EDTA were able to enhance uptake”. Further, the “enhancement of uptake of FITC-albumin” value with Caco-2 cells [8] is “too low to enhance uptake”.
As for `CN(C)CCCN1c2ccccc2Sc2ccc(Cl)cc21` [Chlorpromazine, chlorpromazine], the “fluorescence score, uptake” value with Caco-2 cells [2] (5000 ug/mL) is reported as “++”. Besides, in the assay on Caco-2 cells [2], the “effect of preincubation with inhibitor on chenodeoxycholate-stimulated uptake of FITC-albumin” value is given as “concentration-dependent inhibition of uptake”.
On to `O=C(O)CN(CCN(CC(=O)O)CC(=O)O)CCN(CC(=O)O)CC(=O)O` [DTPA], for which the “enhancement of uptake over and above that seen with chenodeoxycholate alone” value in the assay with Caco-2 cells [3] is reported as “not”.
With `O=C(O)CN(CCN(CC(=O)O)CC(=O)O)CC(=O)O` [EDTA], in the assay with IEC6 cell line, the “enhancement of uptake of BSA by chenodeoxycholate in IEC6 cells” value was “augmented by EDTA in a dose-dependent fashion”.
Turning to `O=C(O)CN(CCOCCOCCN(CC(=O)O)CC(=O)O)CC(=O)O` [EGTA], the “enhancement of uptake over and above that seen with chenodeoxycholate alone” value with Caco-2 cells [3] is recorded as “not”.
Take `C[C@H](CCC(=O)O)[C@H]1CC[C@H]2[C@@H]3[C@@H](O)C[C@@H]4C[C@H](O)CC[C@]4(C)[C@H]3CC[C@]12C` [Urso, sodium ursodeoxycholate]: the “fluorescence score, uptake” value is on record as “−” with Caco-2 cells [5] (Urso preincubation 0.1 mg/ml, Chenodeoxycholate 0.5 mg/ml); “++” in the assay on Caco-2 cells [5] (Urso preincubation 0.1 mg/ml, Chenodeoxycholate 1.0 mg/ml); “++” with Caco-2 cells [5] (Urso preincubation 0.1 mg/ml, Chenodeoxycholate 1.5 mg/ml); “−” with Caco-2 cells [5] (Urso preincubation 0.5 mg/ml, Chenodeoxycholate 0.5 mg/ml); “+” in the assay on Caco-2 cells [5] (Urso preincubation 0.5 mg/ml, Chenodeoxycholate 1.0 mg/ml); “++” with Caco-2 cells [5] (Urso preincubation 0.5 mg/ml, Chenodeoxycholate 1.5 mg/ml). Also, the “fluorescence score, uptake” value with Caco-2 cells [5] (setting [10]), with Caco-2 cells [5] (setting [11]) and in the assay with Caco-2 cells [5] (setting [12]) was “−” in each case. In addition, the “effect of preincubation on chenodeoxycholate-stimulated uptake of FITC-albumin” value with Caco-2 cells [5] (preincubation ten minutes) is reported as “concentration-dependent inhibition of uptake”.
On to `N=C(N)NC(=O)c1nc(Cl)c(N)nc1N` [amiloride], for which the “effect of preincubation with inhibitor on chenodeoxycholate-stimulated uptake of FITC-albumin” value in the assay with Caco-2 cells [2] is recorded as “no reduction in uptake”.
On the same count and under the same terms, to `C[C@@H]1[C@H](O)[C@@H](C)/C=C/C=C/CC/C=C/C=C/C=C/C=C/C(O[C@H]2O[C@H](C)[C@@H](O)[C@H](N)[C@@H]2O)CC2O[C@](O)(CC(O)C(O)CCC(O)CC(O)CC(O)CC(=O)O[C@H]1C)CC(O)C2C(=O)O` (some centres unmarked) [nystatin] belongs “no reduction in uptake”.
Turning to `c1cnc2c(c1)ccc1cccnc12` [o-phenanthroline], the “enhancement of uptake of the protein (FITC-albumin)” value in the assay with Caco-2 cells [7] is “does not have this effect”.
With Casein, in the assay on Caco-2 cells [9], the “extent of chenodeoxycholate-mediated uptake of the protein” value is recorded as “uptake of a similar extent”.
Take “insulin: FITC-insulin, fluorescent labelled protein cargo”: the “uptake of FITC-insulin into cells (photomicrographs)” value in the assay on Caco-2 cells [1] is reported as “very little uptake”.
